The source made the active and inactive calls.
Experiments:
[1] = molecular target: T1, Acyl-CoA dehydrogenase family member 10 (Homo sapiens, UniProt Q6JQN1)
T1 sequence (Q6JQN1 whole entry): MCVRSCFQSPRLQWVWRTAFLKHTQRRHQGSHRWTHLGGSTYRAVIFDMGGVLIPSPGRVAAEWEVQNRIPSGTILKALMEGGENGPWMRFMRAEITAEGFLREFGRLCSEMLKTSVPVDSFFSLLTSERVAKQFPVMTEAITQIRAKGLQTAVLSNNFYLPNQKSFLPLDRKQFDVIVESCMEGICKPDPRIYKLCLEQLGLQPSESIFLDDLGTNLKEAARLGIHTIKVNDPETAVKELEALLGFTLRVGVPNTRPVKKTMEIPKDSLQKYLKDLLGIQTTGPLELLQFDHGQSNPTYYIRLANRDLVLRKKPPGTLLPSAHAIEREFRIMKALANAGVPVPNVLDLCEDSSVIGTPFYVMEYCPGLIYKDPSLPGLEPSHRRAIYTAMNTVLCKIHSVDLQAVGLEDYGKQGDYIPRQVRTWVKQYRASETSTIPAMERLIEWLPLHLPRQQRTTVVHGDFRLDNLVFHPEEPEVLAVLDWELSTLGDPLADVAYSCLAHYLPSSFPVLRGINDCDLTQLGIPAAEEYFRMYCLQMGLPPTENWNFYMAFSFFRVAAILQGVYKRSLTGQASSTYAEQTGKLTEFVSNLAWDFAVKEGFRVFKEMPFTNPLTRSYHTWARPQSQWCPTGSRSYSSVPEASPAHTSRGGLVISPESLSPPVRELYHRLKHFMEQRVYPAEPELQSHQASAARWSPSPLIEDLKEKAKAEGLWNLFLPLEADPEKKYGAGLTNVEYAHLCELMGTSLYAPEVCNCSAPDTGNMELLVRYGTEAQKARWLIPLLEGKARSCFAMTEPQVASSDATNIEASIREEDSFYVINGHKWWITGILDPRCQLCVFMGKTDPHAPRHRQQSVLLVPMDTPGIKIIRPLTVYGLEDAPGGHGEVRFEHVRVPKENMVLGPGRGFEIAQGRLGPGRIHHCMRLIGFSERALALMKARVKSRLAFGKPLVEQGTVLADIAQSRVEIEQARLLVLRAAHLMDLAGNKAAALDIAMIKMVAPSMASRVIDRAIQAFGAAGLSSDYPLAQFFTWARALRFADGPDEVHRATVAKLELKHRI

[2] = molecular target: T2, Adenine phosphoribosyltransferase (Homo sapiens, UniProt P07741)
T2 sequence (P07741 whole entry): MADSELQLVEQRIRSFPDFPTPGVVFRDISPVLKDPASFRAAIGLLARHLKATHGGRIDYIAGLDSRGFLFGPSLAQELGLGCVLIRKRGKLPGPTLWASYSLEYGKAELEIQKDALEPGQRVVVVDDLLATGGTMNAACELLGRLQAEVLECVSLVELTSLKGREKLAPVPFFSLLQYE

[3] = molecular target: Cyclin-dependent kinase 4 (Homo sapiens, UniProt P11802)
Sequence of Cyclin-dependent kinase 4 (P11802 whole entry): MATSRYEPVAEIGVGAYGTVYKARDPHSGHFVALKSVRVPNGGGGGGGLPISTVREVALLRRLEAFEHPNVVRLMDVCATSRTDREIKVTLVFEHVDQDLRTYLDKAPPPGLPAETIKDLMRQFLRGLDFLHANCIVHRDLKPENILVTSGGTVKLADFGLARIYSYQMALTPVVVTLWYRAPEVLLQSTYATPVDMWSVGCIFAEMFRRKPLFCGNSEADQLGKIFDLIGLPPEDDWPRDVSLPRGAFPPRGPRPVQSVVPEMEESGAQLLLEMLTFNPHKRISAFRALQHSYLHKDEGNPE

[4] = molecular target: T3, Serine/threonine-protein kinase ICK (Homo sapiens, UniProt Q9UPZ9)
T3 sequence (Q9UPZ9 whole entry): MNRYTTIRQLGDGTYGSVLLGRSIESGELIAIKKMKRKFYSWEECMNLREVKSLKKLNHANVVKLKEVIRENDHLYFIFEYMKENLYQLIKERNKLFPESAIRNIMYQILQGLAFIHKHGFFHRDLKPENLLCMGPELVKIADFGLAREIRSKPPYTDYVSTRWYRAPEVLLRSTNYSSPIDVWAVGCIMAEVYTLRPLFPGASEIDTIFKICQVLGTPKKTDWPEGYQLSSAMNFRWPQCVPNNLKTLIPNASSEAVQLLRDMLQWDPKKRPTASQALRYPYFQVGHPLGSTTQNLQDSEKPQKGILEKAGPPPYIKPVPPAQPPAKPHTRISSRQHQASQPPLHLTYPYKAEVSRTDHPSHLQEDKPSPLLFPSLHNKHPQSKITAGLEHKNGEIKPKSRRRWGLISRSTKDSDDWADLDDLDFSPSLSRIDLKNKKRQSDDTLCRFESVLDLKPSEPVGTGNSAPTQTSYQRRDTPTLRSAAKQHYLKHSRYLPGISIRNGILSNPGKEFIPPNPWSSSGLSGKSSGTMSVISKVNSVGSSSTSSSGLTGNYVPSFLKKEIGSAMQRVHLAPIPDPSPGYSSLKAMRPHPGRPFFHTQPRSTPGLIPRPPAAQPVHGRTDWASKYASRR

[5] = molecular target: T4, STE20-related kinase adapter protein alpha (Homo sapiens, UniProt Q7RTN6)
T4 sequence (Q7RTN6 whole entry): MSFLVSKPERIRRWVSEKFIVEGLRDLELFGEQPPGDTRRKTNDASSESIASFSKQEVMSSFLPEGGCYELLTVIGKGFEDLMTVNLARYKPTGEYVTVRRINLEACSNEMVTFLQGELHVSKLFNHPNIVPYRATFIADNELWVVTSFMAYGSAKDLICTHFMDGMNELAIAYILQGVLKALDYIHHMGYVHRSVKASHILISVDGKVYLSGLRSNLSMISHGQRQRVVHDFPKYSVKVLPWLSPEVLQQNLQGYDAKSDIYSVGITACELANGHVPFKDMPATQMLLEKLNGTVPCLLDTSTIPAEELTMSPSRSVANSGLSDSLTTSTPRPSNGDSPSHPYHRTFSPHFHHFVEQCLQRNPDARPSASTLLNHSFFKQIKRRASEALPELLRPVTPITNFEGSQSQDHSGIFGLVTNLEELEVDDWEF

[6] = molecular target: T5, Succinate--CoA ligase [ADP-forming] subunit beta, mitochondrial (Homo sapiens, UniProt Q9P2R7)
T5 sequence (Q9P2R7 whole entry): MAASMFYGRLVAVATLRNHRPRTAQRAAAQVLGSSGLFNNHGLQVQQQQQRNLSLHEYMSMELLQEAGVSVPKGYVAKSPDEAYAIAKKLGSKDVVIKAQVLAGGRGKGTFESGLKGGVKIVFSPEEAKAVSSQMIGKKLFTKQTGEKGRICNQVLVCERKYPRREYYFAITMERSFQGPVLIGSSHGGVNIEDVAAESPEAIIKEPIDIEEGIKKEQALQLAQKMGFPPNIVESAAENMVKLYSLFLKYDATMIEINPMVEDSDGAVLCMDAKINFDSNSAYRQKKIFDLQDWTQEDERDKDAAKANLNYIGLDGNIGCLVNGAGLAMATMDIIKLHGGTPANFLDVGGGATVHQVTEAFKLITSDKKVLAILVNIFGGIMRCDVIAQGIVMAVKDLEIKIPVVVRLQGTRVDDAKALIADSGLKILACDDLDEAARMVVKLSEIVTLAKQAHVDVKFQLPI

[7] = molecular target: Tyrosine-protein kinase BTK (Homo sapiens, UniProt Q06187)
Sequence of Tyrosine-protein kinase BTK (Q06187 whole entry): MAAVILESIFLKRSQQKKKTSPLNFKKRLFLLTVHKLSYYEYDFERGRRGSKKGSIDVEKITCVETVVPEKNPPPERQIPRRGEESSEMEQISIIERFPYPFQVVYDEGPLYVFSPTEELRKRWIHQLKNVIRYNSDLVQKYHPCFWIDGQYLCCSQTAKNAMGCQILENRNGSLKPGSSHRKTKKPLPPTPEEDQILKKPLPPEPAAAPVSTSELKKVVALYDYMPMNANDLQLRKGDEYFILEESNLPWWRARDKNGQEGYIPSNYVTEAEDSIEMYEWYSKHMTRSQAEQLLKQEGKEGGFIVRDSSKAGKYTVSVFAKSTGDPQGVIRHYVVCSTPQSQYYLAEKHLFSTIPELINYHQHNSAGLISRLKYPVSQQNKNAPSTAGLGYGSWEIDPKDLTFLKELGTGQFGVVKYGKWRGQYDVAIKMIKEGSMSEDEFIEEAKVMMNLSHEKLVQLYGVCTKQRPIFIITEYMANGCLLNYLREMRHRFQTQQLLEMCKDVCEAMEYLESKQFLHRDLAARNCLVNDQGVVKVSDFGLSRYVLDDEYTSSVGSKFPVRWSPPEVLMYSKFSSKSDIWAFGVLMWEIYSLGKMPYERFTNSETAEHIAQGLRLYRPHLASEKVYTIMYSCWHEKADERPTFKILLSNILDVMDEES

Measured: Kd
Also: in the data inactive means no Kd found up to 30 µM.

CCN(CCCOc1ccc2c(Nc3cc(CC(=O)Nc4cccc(F)c4)n[nH]3)ncnc2c1)CCOP(=O)(O)O [BARASERTIB]
inactive: [1] > 30 µM | [2] > 30 µM | [3] > 30 µM | [4] > 30 µM | [5] > 30 µM | [6] > 30 µM

C=CCn1c(=O)c2cnc(Nc3ccc(N4CCN(C)CC4)cc3)nc2n1-c1cccc(C(C)(C)O)n1 [ADAVOSERTIB]
inactive: [1] > 30 µM | [2] > 30 µM | [3] > 30 µM | [4] > 30 µM | [5] > 30 µM | [6] > 30 µM

COc1cc2c(N3CCN(C(=O)Nc4ccc(OC(C)C)cc4)CC3)ncnc2cc1OCCCN1CCCCC1 [TANDUTINIB]
inactive: [1] > 30 µM | [2] > 30 µM | [5] > 30 µM

O=c1[nH]c([C@@H]2CCCN2)nc2c1oc1ccc(Cl)cc12
inactive: [1] > 30 µM | [7] > 30 µM | [3] > 30 µM | [5] > 30 µM | [6] > 30 µM

COc1cc2c(Oc3ccc4[nH]c(C)cc4c3F)ncnc2cc1OCCCN1CCCC1 [CEDIRANIB]
inactive: [1] > 30 µM | [2] > 30 µM | [5] > 30 µM | [6] > 30 µM

Cn1cnc2c(F)c(Nc3ccc(Br)cc3Cl)c(C(=O)NOCCO)cc21 [SELUMETINIB]
inactive: [1] > 30 µM | [2] > 30 µM | [5] > 30 µM | [6] > 30 µM

CN(C)C/C=C/C(=O)Nc1cc2c(Nc3ccc(F)c(Cl)c3)ncnc2cc1O[C@H]1CCOC1 [AFATINIB]
inactive: [1] > 30 µM | [2] > 30 µM | [5] > 30 µM

CCOc1ccn(-c2ccc(F)cc2)c(=O)c1C(=O)Nc1ccc(Oc2ccnc(N)c2Cl)c(F)c1 [BMS-777607]
inactive: [1] > 30 µM | [2] > 30 µM | [3] > 30 µM | [4] > 30 µM | [6] > 30 µM

CN(c1ncccc1CNc1nc(Nc2ccc3c(c2)CC(=O)N3)ncc1C(F)(F)F)S(C)(=O)=O [PF-00562271]
inactive: [1] > 30 µM | [2] > 30 µM | [3] > 30 µM | [4] > 30 µM | [5] > 30 µM | [6] > 30 µM

O=C(NC[C@H](O)CO)c1ccncc1Nc1ccc(I)cc1F [PIMASERTIB]
inactive: [1] > 30 µM | [2] > 30 µM | [7] > 30 µM | [3] > 30 µM | [5] > 30 µM | [6] > 30 µM

CC1(C)CNc2cc(NC(=O)c3cccnc3NCc3ccncc3)ccc21 [MOTESANIB]
inactive: [1] > 30 µM | [2] > 30 µM | [5] > 30 µM | [6] > 30 µM

S=C(NCc1ccc2c(c1)OCO2)N1CCN(c2ncnc3c2oc2ccccc23)CC1 [AMUVATINIB]
inactive: [1] > 30 µM | [2] > 30 µM | [7] > 30 µM | [3] > 30 µM | [5] > 30 µM | [6] > 30 µM

C[C@@]1(C(=O)Nc2ccc(F)nc2)CCCN1c1nc(Nc2cc(C3CC3)n[nH]2)c2cccn2n1 [BMS-754807]
inactive: [1] > 30 µM | [2] > 30 µM | [5] > 30 µM | [6] > 30 µM

O=S(=O)(c1cccc2cnccc12)N1CCCNCC1 [FASUDIL]
inactive: [1] > 30 µM | [2] > 30 µM | [3] > 30 µM | [5] > 30 µM | [6] > 30 µM

N#CCNC(=O)c1ccc(-c2ccnc(Nc3ccc(N4CCOCC4)cc3)n2)cc1 [MOMELOTINIB]
inactive: [1] > 30 µM | [2] > 30 µM | [7] > 30 µM | [3] > 30 µM | [6] > 30 µM

NC[C@@](O)(c1ccc(Cl)cc1)c1ccc(-c2cn[nH]c2)cc1 [AT-13148]
inactive: [1] > 30 µM | [2] > 30 µM | [7] > 30 µM | [3] > 30 µM | [5] > 30 µM | [6] > 30 µM

Cc1c(NC(=O)OC[C@@H]2COCCN2)cn2ncnc(Nc3ccc4c(cnn4Cc4cccc(F)c4)c3)c12 [AC-480]
inactive: [1] > 30 µM | [2] > 30 µM | [7] > 30 µM | [3] > 30 µM | [5] > 30 µM | [6] > 30 µM

C[C@]1(O)C[C@@H](c2nc(-c3ccc4ccc(-c5ccccc5)nc4c3)c3c(N)nccn32)C1 [LINSITINIB]
inactive: [1] > 30 µM | [3] > 30 µM | [4] > 30 µM | [5] > 30 µM | [6] > 30 µM

— ChEMBL document CHEMBL3991601, “The target landscape of clinical kinase drugs” (Science, 2017)
